Assay results reported in US20200017495A1, “NOVEL HETEROCYCLIC COMPOUNDS AND THEIR USE IN PREVENTING OR TREATING BACTERIAL INFECTIONS” (priority 2017, published 2020).
Where two headings read alike, the source gives them in different places.

Tests used:
OXA-58 = OXA-58 (Acinetobacter baumannii, UniProt Q2TR58); assay: β-lactamase inhibitory activity, IC50 (nitrocefin hydrolysis); assay type: biochemical
Method: (§3) Enzymes were cloned in E. coli expression vector, expressed and purified in house using classical procedures. […] After 30 min of pre-incubation at room temperature, 15 μL of NCF (100 μM final) were finally added in each well. […] Enzyme activity was obtained by subtracting the background from the final signal, and was converted to enzyme inhibition using non inhibited wells. IC50 curves were fitted to a classical Langmuir equilibrium model with Hill slope using XLFIT (IDBS).

SHV-1 = SHV-1 (Klebsiella pneumoniae, UniProt P0AD64); assay: as above; assay type: biochemical
Method: as §3

SHV-12 = SHV-12 (Klebsiella pneumoniae, UniProt P0AD64, E235K/G234S/L31Q); assay: as above; assay type: biochemical; conditions: SHV-12; 30 min pre-incubation, nitrocefin 100 μM; read-out: IC50
Method: (§4) Method 1: β-Lactamase Inhibitory Activity, Determination of IC50 (Table 1)
as §3

[1] = test system: Proteus mirabilis (PMI) isolates; assay: microbe, parasite or virus in culture; assay type: cell-based; conditions: Proteus mirabilis, compound alone, read-out: MIC
Method: (§1) Method 2: MIC of Compounds Alone and Combined with Antibacterials Against Bacterial Isolates
(§2) Compounds of the present invention were assessed against genotyped bacterial strains (Table 3, 4) alone or in combination with an antibacterial (Table 2). […] Log phase bacterial suspensions were adjusted to a final density of 5.10^5 CFU/mL in cation-adjusted Mueller-Hinton broth (ca-MHB; Becton-Dickinson and Company) and added to each well (98 μL). Microplates were incubated for 16-20 h at 35° C. in ambient air. The MIC of the compounds was defined as the lowest concentration of said compounds that prevented bacterial growth as read by visual inspection. The MIC of ATB at each compound concentration was defined as the lowest concentration of ATB that prevented bacterial growth as read by visual inspection.

P99 ampC = P99 ampC (Enterobacter cloacae, UniProt P05364); assay: β-lactamase inhibitory activity, IC50 (nitrocefin hydrolysis); assay type: biochemical
Method: as §4, §3

OXA-40 = OXA-40 (Acinetobacter baumannii, UniProt Q8RLA6); assay: as above; assay type: biochemical
Method: as §3

OXA-11 = OXA-11 (Pseudomonas aeruginosa, UniProt Q06778); assay: as above; assay type: biochemical
Method: as §3

[2] = test system: Citrobacter freundii (CFR) isolates; assay: MIC of compounds alone and combined with antibacterials, broth microdilution (CLSI); assay type: cell-based; conditions: Citrobacter freundii, strain CFR UFR250; compound alone
Method: as §1, §2

[3] = test system: Escherichia coli (ECO) isolates; assay: as above; assay type: cell-based; conditions: Escherichia coli, compound alone, read-out: MIC
Method: as §1, §2

[4] = test system: Enterobacter aerogenes (EAE) isolates; assay: as above; assay type: cell-based; conditions: Klebsiella aerogenes
Method: as §1, §2

[5] = test system: Klebsiella pneumoniae (KPN) isolates; assay: as above; assay type: cell-based; conditions: Klebsiella pneumoniae, compound alone, read-out: MIC
Method: as §1, §2

[6] = test system: Serratia marcescens (SMA) isolates; assay: as above; assay type: cell-based; conditions: Serratia marcescens; strain SMA UFR143; compound alone; read-out: MIC
Method: as §1, §2

OXA-15 = OXA-15 (Pseudomonas aeruginosa, UniProt Q51574); assay: β-lactamase inhibitory activity, IC50 (nitrocefin hydrolysis); assay type: biochemical
Method: as §3

SAU PC1 = SAU PC1 (Staphylococcus aureus, UniProt P00807); assay: as above; assay type: biochemical, S. aureus; conditions: SAU PC1; 30 min pre-incubation, nitrocefin 100 μM; read-out: IC50
Method: as §4, §3

PAE ampC = PAE ampC (Pseudomonas aeruginosa, UniProt P24735); assay: as above; assay type: biochemical, P. aeruginosa
Method: as §3

OXA-23 = OXA-23 (Acinetobacter baumannii, UniProt Q9L4P2); assay: as above; assay type: biochemical
Method: as §3

CTX-M-15 = CTX-M-15 (Escherichia coli, UniProt Q9EXV5); assay: as above; assay type: biochemical
Method: as §4, §3

OXA-1 = OXA-1 (Escherichia coli, UniProt P13661); assay: as above; assay type: biochemical
Method: as §3

TEM-1 = TEM-1 (Escherichia coli, UniProt P62593); assay: as above; assay type: biochemical
Method: as §3

OXA-48 = OXA-48 (Klebsiella pneumoniae, UniProt Q6XEC0); assay: as above; assay type: biochemical
Method: as §3

[7] = test system: Providencia stuartii (PST) isolates; assay: MIC of compounds alone and combined with antibacterials, broth microdilution (CLSI); assay type: cell-based; conditions: Providencia stuartii; strain PST UFR235; compound alone; read-out: MIC
Method: as §1
Compounds of the present invention were assessed against genotyped bacterial strains (Table 3, 4) alone or in combination with an antibacterial (Table 2). […]. Briefly, compounds alone according to the invention were prepared in DMSO and spotted (2 μL each) on sterile polystyrene plates (Corning, 3788). Combinations of compounds and antibiotics dilutions were prepared in DMSO and spotted (1 μL each) on sterile polystyrene plates (Corning, 3788). Log phase bacterial suspensions were adjusted to a final density of 5.10^5 CFU/mL in cation-adjusted Mueller-Hinton broth (ca-MHB; Becton-Dickinson and Company) and added to each well (98 μL). Microplates were incubated for 16-20 h at 35° C. in ambient air. The MIC of the compounds was defined as the lowest concentration of said compounds that prevented bacterial growth as read by visual inspection. The MIC of ATB at each compound concentration was defined as the lowest concentration of ATB that prevented bacterial growth as read by visual inspection.

KPC-2 = KPC-2 (Klebsiella pneumoniae, UniProt Q9F663); assay: β-lactamase inhibitory activity, IC50 (nitrocefin hydrolysis); assay type: biochemical
KPC-2, sequence (Q9F663 25-293 limits assumed): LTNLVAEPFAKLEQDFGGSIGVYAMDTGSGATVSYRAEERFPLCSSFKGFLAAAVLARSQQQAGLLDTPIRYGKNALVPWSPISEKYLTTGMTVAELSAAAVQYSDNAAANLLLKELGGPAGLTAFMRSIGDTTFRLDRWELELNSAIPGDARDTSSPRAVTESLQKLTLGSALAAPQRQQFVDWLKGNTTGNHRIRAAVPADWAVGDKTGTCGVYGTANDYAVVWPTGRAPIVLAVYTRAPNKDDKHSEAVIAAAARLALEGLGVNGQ
Method: as §4, §3

CTX-M-15, sequence (Q9EXV5 entry or part of it): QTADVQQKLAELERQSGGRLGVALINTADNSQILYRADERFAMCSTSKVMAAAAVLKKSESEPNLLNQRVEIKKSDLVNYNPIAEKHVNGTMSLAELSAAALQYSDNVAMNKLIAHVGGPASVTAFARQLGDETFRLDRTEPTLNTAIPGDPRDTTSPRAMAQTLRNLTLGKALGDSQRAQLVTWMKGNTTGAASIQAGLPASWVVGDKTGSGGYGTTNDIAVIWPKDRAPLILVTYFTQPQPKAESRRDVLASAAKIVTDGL
OXA-48, sequence (Q6XEC0 23-265 limits assumed): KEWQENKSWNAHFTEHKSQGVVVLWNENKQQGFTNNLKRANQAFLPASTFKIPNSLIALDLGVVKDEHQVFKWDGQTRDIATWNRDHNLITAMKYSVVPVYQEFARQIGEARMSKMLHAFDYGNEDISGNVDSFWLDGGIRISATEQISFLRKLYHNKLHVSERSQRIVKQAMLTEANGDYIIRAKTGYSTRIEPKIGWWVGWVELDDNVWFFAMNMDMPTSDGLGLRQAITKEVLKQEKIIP
SAU PC1, sequence (P00807 25-281): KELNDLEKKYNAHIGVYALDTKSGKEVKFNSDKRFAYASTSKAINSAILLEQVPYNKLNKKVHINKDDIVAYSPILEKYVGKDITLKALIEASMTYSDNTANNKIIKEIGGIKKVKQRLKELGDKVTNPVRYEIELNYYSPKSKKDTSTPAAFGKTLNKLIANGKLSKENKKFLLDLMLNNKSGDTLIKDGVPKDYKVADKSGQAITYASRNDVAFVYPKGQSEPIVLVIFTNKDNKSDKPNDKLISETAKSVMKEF
TEM-1, sequence (P62593 24-286 limits assumed): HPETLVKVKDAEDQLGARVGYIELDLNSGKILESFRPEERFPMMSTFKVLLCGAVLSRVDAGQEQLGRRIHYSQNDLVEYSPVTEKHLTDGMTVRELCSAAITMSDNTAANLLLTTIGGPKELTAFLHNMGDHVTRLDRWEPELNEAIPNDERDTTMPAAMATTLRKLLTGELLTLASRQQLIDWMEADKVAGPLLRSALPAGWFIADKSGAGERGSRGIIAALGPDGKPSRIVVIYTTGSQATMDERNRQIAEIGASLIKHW
SHV-12, sequence (P0AD64 22-286 L31Q/G234S/E235K): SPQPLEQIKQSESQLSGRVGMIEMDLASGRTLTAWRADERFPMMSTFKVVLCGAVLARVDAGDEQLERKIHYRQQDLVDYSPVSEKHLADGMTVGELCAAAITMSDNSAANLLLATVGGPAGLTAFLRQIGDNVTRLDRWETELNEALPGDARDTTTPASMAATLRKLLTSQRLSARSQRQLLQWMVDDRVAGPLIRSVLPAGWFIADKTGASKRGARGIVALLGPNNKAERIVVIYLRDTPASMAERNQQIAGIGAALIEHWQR
OXA-23, sequence (Q9L4P2 18-273): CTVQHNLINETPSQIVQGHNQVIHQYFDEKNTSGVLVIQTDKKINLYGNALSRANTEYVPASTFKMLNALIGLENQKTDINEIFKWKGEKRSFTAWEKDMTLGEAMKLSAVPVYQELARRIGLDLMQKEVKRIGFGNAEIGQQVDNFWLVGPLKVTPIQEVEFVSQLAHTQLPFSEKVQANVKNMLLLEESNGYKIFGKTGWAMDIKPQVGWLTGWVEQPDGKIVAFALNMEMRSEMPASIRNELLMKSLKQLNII
OXA-11, sequence (Q06778 21-266): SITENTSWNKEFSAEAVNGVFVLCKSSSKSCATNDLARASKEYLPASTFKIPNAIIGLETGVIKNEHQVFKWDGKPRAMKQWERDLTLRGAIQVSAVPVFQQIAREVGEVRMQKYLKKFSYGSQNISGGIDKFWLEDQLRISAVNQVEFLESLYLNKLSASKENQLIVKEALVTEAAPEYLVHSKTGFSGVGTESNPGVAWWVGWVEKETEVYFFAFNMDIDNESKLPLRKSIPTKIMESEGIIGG
OXA-1, sequence (P13661 26-276): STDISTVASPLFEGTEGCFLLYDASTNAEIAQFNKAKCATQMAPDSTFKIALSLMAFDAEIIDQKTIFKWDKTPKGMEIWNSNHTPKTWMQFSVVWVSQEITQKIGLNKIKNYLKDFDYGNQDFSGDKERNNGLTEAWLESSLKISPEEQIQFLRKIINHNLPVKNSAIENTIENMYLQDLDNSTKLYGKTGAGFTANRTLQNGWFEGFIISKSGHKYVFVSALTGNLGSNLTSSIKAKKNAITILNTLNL
OXA-40, sequence (Q8RLA6 entry or part of it): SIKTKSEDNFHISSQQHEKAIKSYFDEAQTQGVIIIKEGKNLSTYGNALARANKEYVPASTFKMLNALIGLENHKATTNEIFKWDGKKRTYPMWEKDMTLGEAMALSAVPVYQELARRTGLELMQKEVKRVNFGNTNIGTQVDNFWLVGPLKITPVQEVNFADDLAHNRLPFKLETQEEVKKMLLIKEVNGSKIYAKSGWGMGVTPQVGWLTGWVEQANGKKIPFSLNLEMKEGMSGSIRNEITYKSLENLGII
PAE ampC, sequence (P24735 27-397): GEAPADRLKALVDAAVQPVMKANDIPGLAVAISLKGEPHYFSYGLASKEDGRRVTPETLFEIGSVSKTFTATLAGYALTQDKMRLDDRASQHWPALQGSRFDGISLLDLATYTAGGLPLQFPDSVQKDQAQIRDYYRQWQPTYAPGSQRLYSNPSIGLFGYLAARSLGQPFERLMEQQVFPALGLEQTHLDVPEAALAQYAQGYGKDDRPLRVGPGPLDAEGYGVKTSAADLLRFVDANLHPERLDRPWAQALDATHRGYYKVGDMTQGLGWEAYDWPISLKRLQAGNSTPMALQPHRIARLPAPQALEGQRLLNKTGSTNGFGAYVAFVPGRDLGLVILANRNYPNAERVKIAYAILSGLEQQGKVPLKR
SHV-1, sequence (P0AD64 22-286): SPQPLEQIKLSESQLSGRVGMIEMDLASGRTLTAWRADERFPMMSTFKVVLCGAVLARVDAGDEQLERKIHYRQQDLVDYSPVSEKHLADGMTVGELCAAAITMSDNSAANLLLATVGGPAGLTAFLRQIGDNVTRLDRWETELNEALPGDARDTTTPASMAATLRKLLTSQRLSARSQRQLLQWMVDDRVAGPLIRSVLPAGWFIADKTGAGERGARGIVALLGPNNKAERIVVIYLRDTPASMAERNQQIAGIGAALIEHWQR
OXA-58, sequence (Q2TR58 19-280): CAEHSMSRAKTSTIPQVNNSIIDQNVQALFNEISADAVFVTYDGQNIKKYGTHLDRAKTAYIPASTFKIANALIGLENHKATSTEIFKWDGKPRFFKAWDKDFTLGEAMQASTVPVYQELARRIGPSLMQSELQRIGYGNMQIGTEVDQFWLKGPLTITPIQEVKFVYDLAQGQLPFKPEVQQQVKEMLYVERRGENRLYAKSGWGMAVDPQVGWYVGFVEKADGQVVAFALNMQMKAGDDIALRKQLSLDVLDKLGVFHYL
P99 ampC, sequence (P05364 21-381): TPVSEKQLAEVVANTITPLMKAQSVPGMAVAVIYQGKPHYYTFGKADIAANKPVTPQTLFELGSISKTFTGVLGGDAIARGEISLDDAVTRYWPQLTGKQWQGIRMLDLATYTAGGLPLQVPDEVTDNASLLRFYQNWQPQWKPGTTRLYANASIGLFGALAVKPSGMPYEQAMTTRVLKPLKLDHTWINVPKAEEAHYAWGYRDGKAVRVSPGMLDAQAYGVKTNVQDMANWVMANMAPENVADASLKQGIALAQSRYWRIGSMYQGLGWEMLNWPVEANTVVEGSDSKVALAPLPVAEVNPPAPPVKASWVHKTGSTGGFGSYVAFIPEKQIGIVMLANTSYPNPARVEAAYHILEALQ
OXA-15, sequence (Q51574 22-275): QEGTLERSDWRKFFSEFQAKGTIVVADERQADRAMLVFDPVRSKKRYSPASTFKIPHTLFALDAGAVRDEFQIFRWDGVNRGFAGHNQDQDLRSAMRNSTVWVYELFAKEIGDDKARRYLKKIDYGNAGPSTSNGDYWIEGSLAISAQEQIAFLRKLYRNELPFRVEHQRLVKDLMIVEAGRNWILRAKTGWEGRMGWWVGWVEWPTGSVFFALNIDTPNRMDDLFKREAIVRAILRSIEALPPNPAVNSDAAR

O=C1N2CC=C(c3cnoc3)C(C2)N1OC(F)(F)C(=O)[O-].[Li+] (stereo not drawn) [AF1, Lithium difluoro-(4-isoxazol-4-yl-7-oxo-1,6-diaza-bicyclo[3.2.1]oct-3-en-6-yloxy)-acetate]
IC50 (OXA-58): 15 nM | IC50 (SHV-1): 20 nM | IC50 (SHV-12): 3.8 nM | MIC ([1]; strain PMI UFR126): 8 µg/mL | MIC ([1]; strain PMI UFR127): 4 µg/mL | IC50 (P99 ampC): 2200 nM | IC50 (OXA-40): 120 nM | IC50 (OXA-11): 250 nM | MIC [2]: > 32 µg/mL | MIC ([3]; strain ECO 190317): 2 µg/mL | MIC ([3]; strain ECO 190457): 4 µg/mL | MIC ([3]; strain ECO UFR16): 8 µg/mL | MIC ([3]; strain ECO UFR20): 16 µg/mL | MIC ([3]; strain ECO UFR61O): 8 µg/mL | MIC ([3]; strain ECO UFR209): 8 µg/mL | MIC [4]: 32 µg/mL | MIC ([5]; strain KPN 110376): > 32 µg/mL | MIC ([5]; strain KPN 131119): > 32 µg/mL | MIC ([5]; strain KPN 190270): > 32 µg/mL | MIC ([5]; strain KPN UFR25): > 32 µg/mL | MIC ([5]; strain KPN UFR66): > 32 µg/mL | MIC ([5]; strain KPN UFR68): > 32 µg/mL | MIC [6]: 32 µg/mL | IC50 (OXA-15): 24 nM | IC50 (SAU PC1): 560 nM | IC50 (PAE ampC): 4500 nM | IC50 (OXA-23): 110 nM | IC50 (CTX-M-15): 2.4 nM | IC50 (OXA-1): 1600 nM | IC50 (TEM-1): 10 nM | IC50 (OXA-48): 3 nM | MIC [7]: > 32 µg/mL | IC50 (KPC-2): 510 nM
